From publication PMC11584650, “An inhibitory segment within G-patch activators tunes Prp43-ATPase activity during ribosome assembly” (Nature Communications, 2024)

Tests used:
[1] = target: T1, Prp43:Tma23^M (Saccharomyces cerevisiae, UniProt P53131); assay: pyruvate kinase/lactate dehydrogenase coupled NADH assay, Michaelis-Menten fit; format: biochemical; conditions: no RNA; 20 mM MgCl2, 50 mM Hepes pH 7.5, 200 mM KCl, room temperature, ATP up to 2.5 mM
T1 construct: 1:1 complex of Prp43 with the middle (I-patch containing) domain of Tma23, co-expressed in E. coli; with Protein TMA23
T1 sequence (P53131 whole entry): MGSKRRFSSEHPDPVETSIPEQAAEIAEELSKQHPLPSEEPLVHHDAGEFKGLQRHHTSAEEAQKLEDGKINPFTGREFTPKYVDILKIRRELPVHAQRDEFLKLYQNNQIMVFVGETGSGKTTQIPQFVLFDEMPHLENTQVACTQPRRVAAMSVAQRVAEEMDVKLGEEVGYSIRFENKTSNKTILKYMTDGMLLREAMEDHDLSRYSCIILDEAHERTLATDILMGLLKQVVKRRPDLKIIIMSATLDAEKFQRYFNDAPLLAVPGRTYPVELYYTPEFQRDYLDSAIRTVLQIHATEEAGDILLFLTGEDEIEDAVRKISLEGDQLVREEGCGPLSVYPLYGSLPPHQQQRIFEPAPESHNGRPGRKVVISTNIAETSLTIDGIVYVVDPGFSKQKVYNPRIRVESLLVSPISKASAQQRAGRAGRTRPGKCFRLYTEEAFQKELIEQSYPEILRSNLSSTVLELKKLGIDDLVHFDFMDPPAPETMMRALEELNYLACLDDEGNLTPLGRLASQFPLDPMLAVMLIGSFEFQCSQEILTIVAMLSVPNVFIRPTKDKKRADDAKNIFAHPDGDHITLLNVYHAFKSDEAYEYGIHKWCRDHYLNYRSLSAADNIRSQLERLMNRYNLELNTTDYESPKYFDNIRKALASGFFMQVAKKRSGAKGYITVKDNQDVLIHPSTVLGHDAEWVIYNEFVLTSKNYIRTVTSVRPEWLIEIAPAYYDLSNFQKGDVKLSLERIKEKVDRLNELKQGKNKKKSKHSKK
T1 sequence (Q03525 whole entry partner): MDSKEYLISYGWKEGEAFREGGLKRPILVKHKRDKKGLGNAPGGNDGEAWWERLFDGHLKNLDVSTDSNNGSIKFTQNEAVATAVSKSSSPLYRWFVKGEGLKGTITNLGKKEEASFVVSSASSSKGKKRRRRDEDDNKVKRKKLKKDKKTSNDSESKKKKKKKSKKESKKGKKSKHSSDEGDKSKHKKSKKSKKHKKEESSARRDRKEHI
From the text: pyruvate kinase/lactate dehydrogenase coupled NADH assay, Michaelis-Menten fit on Prp43:Tma23^M | We obtained kinetic parameters for the ATPase activities of Prp43, Prp43:Tma23^M and Ppr43:Pxr1^M complexes

[2] = target: T2, Prp43:Pxr1^GM (Saccharomyces cerevisiae, UniProt P53131); assay: pyruvate kinase/lactate dehydrogenase coupled NADH assay, initial rate; format: biochemical; conditions: 2.5 mM ATP, no RNA; 20 mM MgCl2, 50 mM Hepes pH 7.5, 200 mM KCl, room temperature
T2 construct: full-length Prp43 with G-patch plus middle domain of Pxr1 (137 residues), co-expressed in E. coli; resolved Prp43 52-718 and Pxr1 122-136; with Protein PXR1
T2 sequence (P53131 whole entry, the tested form may be a part): as the sequence (P53131 whole entry) above
T2 sequence (P53335 1-137 partner): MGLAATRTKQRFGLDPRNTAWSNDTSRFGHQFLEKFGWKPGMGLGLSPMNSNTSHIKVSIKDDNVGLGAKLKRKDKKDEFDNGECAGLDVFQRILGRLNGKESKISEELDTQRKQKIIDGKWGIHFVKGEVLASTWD

Km [1]: 34 ± 4.56 µM
SMILES: Nc1ncnc2c1ncn2[C@@H]1O[C@H](COP(=O)(O)OP(=O)(O)OP(=O)(O)O)[C@@H](O)[C@H]1O [ATP]
pyruvate kinase/lactate dehydrogenase coupled NADH assay, initial rate [2]: Pxr1^GM, Pxr1^GM-L33E, and Pxr1^M were co-expressed with Prp43
